Measurements as given in patent US20250326814A1, “MODIFIED OXYNTOMODULIN AND METHODS OF USE THEREOF” (OPKO BIOLOGICS LTD., priority 2024, published 2025).
Starred links: 1 amine or outer side, 2 acyl side, 3 side chain; linkers in the order of their positions; H or OH if unused. Non-standard residues stand in square brackets, D forms with d. Residues, ends and D or L forms follow the SMILES beside them. Groups on a side chain read outwards from the residue. *: point of attachment. C20 diacid = O=C(O)CCCCCCCCCCCCCCCCCCC(=O)*; γGlu = O=C(O)[C@H](CCC(=O)[*:2])N[*:1]; AEEA = NCCOCCOCC(=O)O; Aib = CC(C)(N)C(=O)O

Key:
[1] = biological target: T1, glucagon-like peptide-1 (GLP1) receptor (Homo sapiens, UniProt P43220); assay: GLP-1 activity EC50 of OXM analogs and GLP-1 therapeutics (Example 4, Table 9); format: cell-based; details: Example 4; read-out: GLP-1 activity (EC50)
T1 construct: expressed in transfected cells; host or cells: CHO-K1
Source text: The potencies of the modified OXM analogs newly disclosed in the present application, the OXM Analog alone, and the PEGylated OXM analog were examined and compared by measuring the EC50 of both receptors, glucagon-like peptide-1 (GLP1) and glucagon (GCGR).

GCGR [2] = biological target: T2, GCGR (Homo sapiens, UniProt P47871); assay: CBA potency assay, GCGR (Tables 10 and 11); format: cell-based
Source text: (§1) The impact of the longevity-enabling molecule (PEG Vs. FA-peptide/binder complex) on the peptide potency was studied.

GLP1 [3] = biological target: T3, GLP1 (Homo sapiens, UniProt P43220); assay: GLP-1 activity in vitro of PEGylated and acylated OXM peptide analogs (Table 12); format: cell-based
Procedure: (§2) The potential benefits of novel acylated OXM products relative to the PEGylated OXM peptide were evaluated for GLP-1 and Glucagon activity in vitro, molecular weight, dosing, and efficacy in a DIO Mouse model.
(§3) The potency of the acylated OXM peptides was compared with the native OXM peptide alone and Pegylated OXM peptide to evaluate the impact of acylation on GLP-1 and Glucagon activities.

GLP1 [4] = biological target: T3, GLP1; assay: CBA potency assay, GLP1 (Tables 10 and 11); format: cell-based
Source text: as §1

GCGR [5] = biological target: T2, GCGR; assay: Glucagon activity in vitro of PEGylated and acylated OXM peptide analogs (Table 12); format: cell-based; details: for GCGR/GLP-1R: ratio of EC50 activity
Procedure: as §2, §3

DIO mice = assay: Weight loss in DIO mice with OPK-88604 and OPK-88006, 30 nmoles/kg; format: in vivo; details: vs placebo
Procedure: The animals were individually weighed and analyzed for lipid and cholesterol levels prior to treatment and following completion of the study. The levels of fasting glucose and insulin levels were analyzed, and oral glucose tolerance test was performed and compared between groups The levels of plasma triglycerides and cholesterol were evaluated at the end of study and compared to base levels prior to treatment. Levels of total cholesterol, triglycerides and glycogen were also examined at the end of study. Histology of liver was used to analyze for lipid droplets in the liver. All tests were conducted using routine methods known in the art.
DIO mice with weights of around 55 grams were divided into three groups and treated with placebo, 30 nmoles/kg of OPK-88604, or 30 nmoles/kg of OPK-88006 for 4 weeks. The animals were weighed daily for the period of treatment.

[6] = Viscosity of the formulated PEGylated OXM product; format: physicochemical

T2 sequence (P47871 26-477): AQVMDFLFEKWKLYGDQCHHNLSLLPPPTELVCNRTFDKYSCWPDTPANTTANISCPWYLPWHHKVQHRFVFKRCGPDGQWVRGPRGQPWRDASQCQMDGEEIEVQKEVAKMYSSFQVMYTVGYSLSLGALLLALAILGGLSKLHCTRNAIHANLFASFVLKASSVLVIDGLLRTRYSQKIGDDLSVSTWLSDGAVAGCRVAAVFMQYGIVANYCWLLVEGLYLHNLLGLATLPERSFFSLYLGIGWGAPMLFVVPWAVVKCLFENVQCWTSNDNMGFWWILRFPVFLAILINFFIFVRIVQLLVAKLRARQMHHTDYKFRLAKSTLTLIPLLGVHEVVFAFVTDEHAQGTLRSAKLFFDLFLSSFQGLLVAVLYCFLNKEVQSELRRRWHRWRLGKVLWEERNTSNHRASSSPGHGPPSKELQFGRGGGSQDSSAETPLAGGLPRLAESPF
T3 sequence (P43220 24-463): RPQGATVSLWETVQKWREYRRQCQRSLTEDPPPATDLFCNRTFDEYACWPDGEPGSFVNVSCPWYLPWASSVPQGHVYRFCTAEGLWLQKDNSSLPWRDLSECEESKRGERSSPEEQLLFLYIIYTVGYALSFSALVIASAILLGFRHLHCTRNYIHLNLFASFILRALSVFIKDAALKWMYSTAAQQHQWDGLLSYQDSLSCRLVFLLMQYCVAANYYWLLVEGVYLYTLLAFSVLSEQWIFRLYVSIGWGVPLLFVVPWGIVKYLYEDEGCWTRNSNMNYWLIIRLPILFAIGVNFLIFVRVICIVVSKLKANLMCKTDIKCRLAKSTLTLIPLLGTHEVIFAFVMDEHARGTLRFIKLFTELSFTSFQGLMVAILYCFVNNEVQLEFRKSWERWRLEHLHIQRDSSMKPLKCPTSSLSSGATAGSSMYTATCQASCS
T1 sequence (P43220 24-463): as above

Compound: CC[C@H](C)[C@H](NC(=O)[C@H](CC(N)=O)NC(=O)[C@H](CC(N)=O)NC(=O)[C@H](CCCNC(=N)N)NC(=O)[C@H](CC(N)=O)NC(=O)[C@H](CCCNC(=N)N)NC(=O)CNC(=O)C(C)(C)NC(=O)[C@H](CC(N)=O)NC(=O)[C@H](CC(C)C)NC(=O)[C@H](CC(C)C)NC(=O)[C@H](Cc1c[nH]c2ccccc12)NC(=O)[C@H](CCC(N)=O)NC(=O)[C@@H](NC(=O)[C@H](Cc1ccccc1)NC(=O)[C@H](CCC(=O)O)NC(=O)[C@H](CCC(N)=O)NC(=O)[C@H](C)NC(=O)[C@H](CCCCN)NC(=O)[C@H](CCCCN)NC(=O)[C@H](CO)NC(=O)[C@H](CC(=O)O)NC(=O)[C@H](CC(C)C)NC(=O)[C@H](Cc1ccc(O)cc1)NC(=O)[C@H](CCCCN)NC(=O)[C@H](CO)NC(=O)[C@H](Cc1ccc(O)cc1)NC(=O)[C@H](CC(=O)O)NC(=O)[C@H](CO)NC(=O)[C@@H](NC(=O)[C@H](Cc1ccccc1)NC(=O)[C@@H](NC(=O)CNC(=O)[C@H](CCC(N)=O)NC(=O)C(C)(C)NC(=O)[C@@H](N)Cc1c[nH]cn1)[C@@H](C)O)[C@@H](C)O)C(C)C)C(=O)N[C@@H](C)C(=O)N[C@@H](CS)C(=O)N[C@@H](CS)C(N)=O [OPK-88003 KPI]
- EC50 [1]: 0.105 nM
- % EC50 compare to KPI (GCGR) (GCGR [2]; Table 10): 100%
- EC50 (GCGR [2]; Table 10): 0.6 nM
- EC50 ratio (GCGR\GLP-1R) (GCGR [2]; Table 10): 4.7
- % EC50 compare to KPI (GCGR) (GCGR [2]; Table 11, + HSA): 129%
- EC50 (GCGR [2]; Table 11, + HSA): 1.06 nM
- EC50 ratio (GCGR\GLP-1R) (GCGR [2]; Table 11, + HSA): 5.7
- % EC50 compare to KPI (GCGR) (GCGR [2]; Table 11, without HSA): 100%
- EC50 (GCGR [2]; Table 11, without HSA): 1.37 nM
- EC50 ratio (GCGR\GLP-1R) (GCGR [2]; Table 11, without HSA): 6.8
- EC50 (GLP1 [3]): 0.0168 nM
- % EC50 compare to KPI (GLP1) (GLP1 [4]; Table 10): 100%
- EC50 (GLP1 [4]; Table 10): 0.127 nM
- % EC50 compare to KPI (GLP1) (GLP1 [4]; Table 11, + HSA): 107%
- EC50 (GLP1 [4]; Table 11, + HSA): 0.187 nM
- % EC50 compare to KPI (GLP1) (GLP1 [4]; Table 11, without HSA): 100%
- EC50 (GLP1 [4]; Table 11, without HSA): 0.201 nM
- EC50 (GCGR [5]): 0.0731 nM
- GCGR/GLP-1R (GCGR [5]): 4.4

Compound: CC[C@H](C)[C@H](NC(=O)[C@H](CC(N)=O)NC(=O)[C@H](CC(N)=O)NC(=O)[C@H](CCCNC(=N)N)NC(=O)[C@H](CC(N)=O)NC(=O)[C@H](CCCNC(=N)N)NC(=O)CNC(=O)C(C)(C)NC(=O)[C@H](CC(N)=O)NC(=O)[C@H](CC(C)C)NC(=O)[C@H](CC(C)C)NC(=O)[C@H](Cc1c[nH]c2ccccc12)NC(=O)[C@H](CCC(N)=O)NC(=O)[C@@H](NC(=O)[C@H](Cc1ccccc1)NC(=O)[C@H](CCC(=O)O)NC(=O)[C@H](CCC(N)=O)NC(=O)[C@H](C)NC(=O)[C@H](CCCCN)NC(=O)[C@H](CCCCN)NC(=O)[C@H](CO)NC(=O)[C@H](CC(=O)O)NC(=O)[C@H](CC(C)C)NC(=O)[C@H](Cc1ccc(O)cc1)NC(=O)[C@H](CCCCN)NC(=O)[C@H](CO)NC(=O)[C@H](Cc1ccc(O)cc1)NC(=O)[C@H](CC(=O)O)NC(=O)[C@H](CO)NC(=O)[C@@H](NC(=O)[C@H](Cc1ccccc1)NC(=O)[C@@H](NC(=O)CNC(=O)[C@H](CCC(N)=O)NC(=O)C(C)(C)NC(=O)[C@@H](N)Cc1c[nH]cn1)[C@@H](C)O)[C@@H](C)O)C(C)C)C(=O)N[C@@H](C)C(=O)N[C@@H](CCCCNC(=O)COCCOCCNC(=O)COCCOCCNC(=O)CC[C@H](NC(=O)CCCCCCCCCCCCCCCCCCC(=O)O)C(=O)O)C(=O)NCC(N)=O [Variant 5] (H-H[Aib]QGTFTSDYSKYLDSKKAQEFVQWLLN[Aib]GRNRNNIAK([AEEA-AEEA-γGlu-C20 diacid])G-NH2)
- weight loss over 4 weeks (FIG. 41A, 41B) (DIO mice): significant weight loss over 4 weeks
- EC50 (GLP1 [3]): 0.019 nM
- EC50 (GCGR [5]): 0.31 nM
- GCGR/GLP-1R (GCGR [5]): 16.3

Compound: OPK-88003 API: SEQ ID NO: 3 where Xaa38=Cys-PEG20 and Xaa39=Cys-PEG20
- viscosity of the formulated product [6]: high viscosity
